Results taken from ChEMBL document CHEMBL1201862, “PubChem BioAssay data set” (2004).
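Grown in 96-well plates, cells were treated for 48 hours with each compound at five concentrations. Insufficient inhibition: endpoint recorded as highest concentration tested. GI50 = concentration required for 50% inhibition of growth.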 The source made the active and inactive calls. Cut-off read from the data, not from the text of the source: active = GI50 up to about 1.1 µM and inactive = higher.

Experiments:
Assay in all cases: NCI anticancer screen, dose series, 48 h
KM-20L2 = tested on: KM-20L2
LXFL 529 = tested on: LXFL 529
DMS-273 = tested on: DMS-273
SNB-78 = tested on: SNB-78
HOP-18 = tested on: HOP-18
M19-MEL = tested on: M19-MEL
DMS-114 = tested on: DMS-114
XF498 = tested on: XF498
RXF 631 = tested on: RXF 631

SMILES | GI50 (KM-20L2) | GI50 (LXFL 529) | GI50 (DMS-273) | GI50 (SNB-78) | GI50 (HOP-18) | GI50 (M19-MEL) | GI50 (DMS-114) | GI50 (XF498) | GI50 (RXF 631)
O=C(O)c1cc2c3ccccc3nc-2c[nH]1 | > 100 µM (inactive) | > 100 µM (inactive) | > 100 µM (inactive) | > 100 µM (inactive) | > 100 µM (inactive) | > 100 µM (inactive) | > 100 µM (inactive) | – | –
COc1cc(C2C3=C(COC3=O)Oc3cc4c(cc32)OCO4)cc(OC)c1OC (stereo not drawn) | 0.0139 µM (active) | 0.00718 µM (active) | 0.01 µM (active) | 0.00849 µM (active) | 0.16 µM (active) | 0.0269 µM (active) | 0.00962 µM (active) | – | –
O=C1OC(=O)C2C1C1C(c3ccccc3)=C(c3ccccc3)C2(O)C2C(=O)OC(=O)C12 (stereo not drawn) | 91 µM (inactive) | 58.3 µM (inactive) | – | 97.7 µM (inactive) | – | > 100 µM (inactive) | 28.6 µM (inactive) | – | –
CCOC(=O)/C(C(=O)c1ccccc1)=C1/NCCN1C | > 100 µM (inactive) | > 100 µM (inactive) | – | > 100 µM (inactive) | > 100 µM (inactive) | > 100 µM (inactive) | – | > 100 µM (inactive) | –
Cc1nc2nn(C)cc2c(=O)n1/N=C/c1ccccc1 | > 100 µM (inactive) | – | > 100 µM (inactive) | > 100 µM (inactive) | 73.1 µM (inactive) | > 100 µM (inactive) | > 100 µM (inactive) | > 100 µM (inactive) | –
O=C1C[C@@H]2[C@@H](CCC23CCCC3)N1 | > 100 µM (inactive) | > 100 µM (inactive) | > 100 µM (inactive) | > 100 µM (inactive) | > 100 µM (inactive) | > 100 µM (inactive) | – | – | –
CC1=C(c2ccccc2)C(c2ccccc2)=C(c2ccccc2)C2(c3ccccc3)C(=O)C(C)CN12 (stereo not drawn) | 45.5 µM (inactive) | 43.8 µM (inactive) | 46.1 µM (inactive) | – | – | 58.5 µM (inactive) | – | 16.9 µM (inactive) | –
Cc1ccc(NC(=O)CC/C(CC(=O)C(C)(C)C)=N/NC(=O)C(N)=O)cc1C | > 100 µM (inactive) | > 100 µM (inactive) | > 100 µM (inactive) | > 100 µM (inactive) | > 100 µM (inactive) | > 100 µM (inactive) | > 100 µM (inactive) | > 100 µM (inactive) | > 100 µM (inactive)
Cc1c(C)n(COCCO)c2ncnc(N)c12 | > 100 µM (inactive) | > 100 µM (inactive) | > 100 µM (inactive) | – | > 100 µM (inactive) | > 100 µM (inactive) | – | > 100 µM (inactive) | –
C[C@]12CCC3[C@@H](CC[C@@H]4c5nonc5CC[C@]34C)C1C/C(=N/O)C2=O (stereo partly drawn) | > 100 µM (inactive) | 18.6 µM (inactive) | > 100 µM (inactive) | > 100 µM (inactive) | > 100 µM (inactive) | > 100 µM (inactive) | > 100 µM (inactive) | 11.5 µM (inactive) | > 100 µM (inactive)
COc1ccc(/C=C2\CCC(CN(C)C)C2=O)cc1 (stereo not drawn) | 17.1 µM (inactive) | 2.05 µM (inactive) | – | 13.6 µM (inactive) | 6.85 µM (inactive) | 8.71 µM (inactive) | 5.98 µM (inactive) | 4.21 µM (inactive) | –
O=C1C=CC(=O)c2c1ccc1c3ccccc3n(-c3ccccn3)c21 | – | 14.8 µM (inactive) | 39.4 µM (inactive) | > 100 µM (inactive) | 14.8 µM (inactive) | 21 µM (inactive) | 20.6 µM (inactive) | 15.6 µM (inactive) | –
CCOc1ccc2c(c1)[n+]([O-])c(-c1ccc(Br)cc1)c(N)[n+]2[O-] | 47 µM (inactive) | 52.2 µM (inactive) | 39.4 µM (inactive) | > 100 µM (inactive) | 57.4 µM (inactive) | 59.2 µM (inactive) | 30.4 µM (inactive) | 49.9 µM (inactive) | 56.4 µM (inactive)
CN(C)c1ccc(/C=N\N2C(=O)c3ccccc3C2=O)cc1 | > 100 µM (inactive) | > 100 µM (inactive) | > 100 µM (inactive) | > 100 µM (inactive) | > 100 µM (inactive) | > 100 µM (inactive) | > 100 µM (inactive) | > 100 µM (inactive) | –
